In patent publication EP0400227A1, “Natriuretic peptides” (Acticor, Inc., priority 1989, dated 1990):
Ends that are not written are not given here.

Test system: rats
Experiment: Natriuretic and diuretic effect of intravenous bolus injection in anesthetized rats
Format: in vivo, male Sprague-Dawley or Long-Evans rats
Conditions: 30 to 60 minutes after minus 30 to 0 minutes before injection, mean ± SEM
Protocol: Diuretic and natriuretic activity of the peptides of this invention is assayed in male rats of the Sprague-Dawley or Long-Evans strains. Peptide or vehicle (for control purposes) is administered by intravenous bolus injection or by continuous infusion into one […] of animals anesthetized for the duration of the experiment, or by intramuscular or subcutaneous injection into animals only briefly anesthetized with ether and subsequently conscious and freely moving until completion of the experiment. Timed urine samples are collected for determination of volume and measurement of sodium and potassium concentration by flame photometry. Details of each method are given in Examples II to IV below.
The natriuretic and diuretic effect of intravenous bolus injection of peptides F15R, G13R and E19R was tested in male Sprague-Dawley or Long-Evans rats weighing 300-400 g. The animals were given Inactin®, 120 mg per kg body weight i.p. under light ether anesthesia. Following placement of a tracheal cannula, the right femoral vein was catheterized for infusion of 5% bovine serum albumin at a dose of 0.4% of body weight and at a rate of 6.0 ml/hour. Subsequently, normal saline was infused for the duration of the experiment at a rate of 2.0 ml/hour. The bladder was exposed through an abdominal incision and catheterized for urine collection. Serial 15-minute urine collections in preweighed vials were begun after a recovery period of 45 minutes. After collection of four control samples, the peptide in 0.1 ml of vehicle was injected into the femoral vein over a period of 1 minute and 6 to 10 further urine samples were collected. Urine volume was determined by weighing and urine sodium and potassium were assayed by flame photometry. All peptides produced natriuresis and diuresis reaching peak levels usually between 30 and 60 minutes after injection. The difference between urine volume and sodium excretion observed from 30 to 60 minutes after and 30 to 0 minutes before peptide administration was calculated for each rat as a measure of activity.

[1] = i.v. 0.100 nmol (0.10 nmol for G13R)

Row | Sequence | Change in Sodium Excretion (i.v. 0.025 nmol) [µeq/30 minutes] | Change in Urine Volume (i.v. 0.025 nmol) [µl/30 minutes] | Change in Sodium Excretion [1] [µeq/30 minutes] | Change in Urine Volume [1] [µl/30 minutes] | Change in Sodium Excretion (i.v. 1.00 nmol) [µeq/30 minutes] | Change in Urine Volume (i.v. 1.00 nmol) [µl/30 minutes]
1 | ETPMFPGNGDEQPLTENP [E19R] | 6.50 ± 3.60 | 89.0 ± 43.6 | 12.07 ± 5.08 | 104.2 ± 58.0 | – | –
2 | GNGDEQPLTPNPR [G13R] | – | – | 8.39 ± 4.41 | 80.0 ± 29.2 | 12.48 ± 6.22 | 62.0 ± 17.2
